Experimental data reported in patent US10512630B2, “Compositions and methods for treating cancer” (The Regents Of The University Of California, priority 2015, dated 2019).

Legend:
[1] = system: MDA-MB-231 triple-negative breast cancer cells; test: Proliferation of MDA-MB-231 triple-negative breast cancer cells in vitro; assay type: cell-based, human; conditions: for Cell proliferation (% control) as a function of parthenolide analog dose (10 uM). / Cell proliferation (% control) as a function of parthenolide analog dose (50 uM).: MDA-MB-231 cells, data corresponds to FIG. 5; for Antitumor effects compared with dimethylamino-parthenolide (DMAPT): MDA-MB-231, doses 0-50 micromolar, most notable at 10 micromolar, FIG. 2
Description: (§1) FIG. 2: Parthenolides inhibit proliferation of MDAMB231 triple negative breast cancer cells. Parthenolide analogues JD211-JD216 were tested for antitumor activity using triple-negative breast cancer cells (MDA-MB-231) in vitro. Doses ranged from 0-50 micromolar and tumor cell proliferation was assessed using established methods. […] This was most notable at lower compound dose at 10 micromolar. These findings indicate that novel compounds such as JD213, JD214, JD215 and JD216 are more promising candidates for anticancer therapy then DMAPT because these cancers are more sensitive to compounds other than DMAPT.
as §1, with “Parthenolide” for “FIG. 2: Parthenolides inhibit proliferation of MDAMB231 triple negative breast cancer cells. Parthenolide”

[2] = system: human umbicical vein endothelial cells (HUVEC); test: Proliferation of human umbilical vein endothelial cells (HUVEC) in vitro; assay type: cell-based; conditions: dosed at 100-nM or at doses up to 10-uM (not shown); FIG. 6

Structure (SMILES) | Cell proliferation (% control) as a function of parthenolide analog dose (10 uM). [1] [% control] | Cell proliferation (% control) as a function of parthenolide analog dose (50 uM). [1] [% control] | Antitumor effects compared with dimethylamino-parthenolide (DMAPT) [1] | Suppression of MDA-MB-231 cell proliferation ([1]; 100-nM dose (0.1-uM) in vitro, compared to control (P<0.001), FIG. 6) | Effect on proliferation of HUVEC [2]
C/C1=C\CC[C@@]2(C)O[C@H]2[C@H]2OC(=O)[C@@H](CNCC(=O)O)[C@@H]2CC1 [JD211, (((3R,3aS,1bS,E)-6,9a-dimethyl-2-oxo-2,3,3a,4,5,8,9,9a,10a,10b-decahydrooxire-no[2′,3′:9,10]cyclodeca[1,2-b]furan-3-yl)methyl)glycine] | 106.0 | 105.8 | – | – | –
C/C1=C\CC[C@@]2(C)O[C@H]2[C@H]2OC(=O)[C@@H](CNC(C)(C)C(=O)OCc3ccccc3)[C@@H]2CC1 [JD212, Benzyl 2-((((3R,3aS,10bS,E)-6,9a-dimethyl-2-oxo-2,3,3a,4,5,8,9,9a,10a,10b-decahydrooxir-eno[2′,3′:9,10]cyclodeca[1,2-b]furan-3-yl)methyl)amino)-2-methylpropanoate] | 103.4 | 100.8 | – | – | –
C/C1=C\CC[C@@]2(C)O[C@H]2[C@H]2OC(=O)[C@@H](CN(C)CC(=O)OCc3ccccc3)[C@@H]2CC1 [JD213, Benzyl N-(((3R,3aS,10bS,E)-6,9a-dimethyl-2-oxo-2,3,3a,4,5,8,9,9a,10a,10b-decahydrooxire-no[2′,3′:9,10]cyclodeca[1,2-b]furan-3-yl)methyl)-N-methylglycinate] | 26.7 | 0.4 | greater than that observed with dimethylamino-parthenolide (DMAPT) | – | –
C/C1=C\CC[C@@]2(C)O[C@H]2[C@H]2OC(=O)[C@@H](CN(C)CC(=O)O)[C@@H]2CC1 [JD214, N-(((3R,3aS,10bS,E)-6,9a-Dimethyl-2-oxo-2,3,3a,4,5,8,9,9a,10a,10b-decahydrooxire-no[2′,3′:9,10]cyclodeca[1,2-b]furan-3-yl)methyl)-N-methylglycine] | 40.0 | 16.6 | greater than that observed with dimethylamino-parthenolide (DMAPT) | – | –
C/C1=C\CC[C@@]2(C)O[C@H]2[C@H]2OC(=O)[C@@H](CNC(C)(C)C(=O)O)[C@@H]2CC1 [JD215, 2-((((3R,3aS,10bS,E)-6,9a-Dimethyl-2-oxo-2,3,3a,4,5,8,9,9a,10a,10b-decahydrooxire-no[2′,3′:9,10]cyclodeca[1,2-b]furan-3-yl)methyl)amino)-2-methylpropanoic acid] | 59.5 | 0 | greater than that observed with dimethylamino-parthenolide (DMAPT) | – | –
C/C1=C\CC[C@@]2(C)O[C@H]2[C@H]2OC(=O)[C@@H](CNCC(=O)OCc3ccccc3)[C@@H]2CC1 [JD216, Benzyl (((3R,3aS,10bS,E)-6,9a-dimethyl-2-oxo-2,3,3a,4,5,8,9,9a,10a,10b-decahydrooxire-no[2′,3′:9,10]cyclodeca[1,2-b]furan-3-yl)methyl)glycinate] | 0 | 0 | greater than that observed with dimethylamino-parthenolide (DMAPT) | effectively suppress | does not significantly alter
